These results are taken from patent US8883720B2, “Template-fixed beta-hairpin peptidomimetics with CXCR4 antagonizing activity” (Polyphor AG, priority 2008, dated 2014).

A short description of data set [1]: Plasma stability, human plasma. The data set is classed as in vitro ADME. Particulars: 37° C., sampled up to 240 min; for half-life at 10 μM: read-out: Plasmastability human pl. T1/2. As for the experimental part:
(§1) The stability of the depsipeptides in human and mouse plasma was determined by applying the following method: 315 μL/deep well of freshly thawed human plasma (Basler Blutspende-dienst) and mouse plasma (Harlan Sera-Lab, UK), respectively, were spiked with 35 μL/well of compound in PBS (100 μM, triplicate) and incubated at 37° C. At t=0, 15, 30, 60, 120 and 240 min aliquots of 50 μL were transferred to filtration plate wells containing 150 μL/well of acetonitrile. Following shaking for 2 min the occurred suspensions were filtrated by vacuum and finally, 100 μL of each filtrate were transferred to a propylene microtiter plate, and analyzed by LC/MS as follows: Column: Waters, XBridge C18, mobile phases: (A) water+0.1% formic acid and (B) acetonitrile/water, 95/5 (v/v)+0.1% formic acid, gradient: 5%-100% (B) in 2 minutes, electrospray ionization, MRM detection (triple quadrupole). The peak areas were determined and triplicate values are averaged. The stability is expressed in percent of the initial value at t=0. (tx/t0×100). By using the TREND function of EXCEL (Microsoft Office 2003) T1/2 were determined.

Data set [2] in a line: Plasma stability, mouse plasma. Conditions: 37° C., sampled up to 240 min; for half-life at 10 μM: read-out: Plasmastability mouse pl. T1/2. It is filed as in vitro ADME. As for the experimental part: as §1
The next data set is described as follows: in vitro. The data set is classed as cell-based. The procedure:
The cytotoxicity of the depsipeptides to HELA cells (Acc57) and COS-7 cells (CRL-1651) was determined using the MTT reduction assay (T. Mossman, J. Immunol. Meth. 1983, 65, 55-63; M. V. Berridge, A. S. Tan, Arch. Biochem. Biophys. 1993, 303, 474-482). Briefly, the method was as follows: 7000 HELA cells/well and 4500 COS-7 cells/well were seeded and grown in 96-well microtiter plates for 24 h at 37° C. at 5% CO2. Thereafter, time zero (Tz) was determined by MTT reduction (see below). The supernatant of the remaining wells was discarded, and fresh medium and compounds in serial dilutions (12.5, 25 and 50 μM, triplicates) were pipetted into the wells. After incubation of the cells for 48 h at 37° C. at 5% CO2 the supernatant was discarded again and 100 μL MTT reagent (0.5 mg/mL in RPMI1640 and DMEM, respectively)/well was added. Following incubation at 37° C. for 2 h the media were aspirated and the cells were spiked (100 μL isopropanol/well). The absorbance of the solubilized formazan was measured at 595 nm (OD595peptide). For each concentration averages were calculated from triplicates. The percentage of growth was calculated as follows: (OD595peptide-OD595Tz-OD595Empty well)/(OD595Tz-OD595Empty well)×100%. The GI50 (Growth Inhibition) concentrations were calculated for each depsipeptide by using a trend line function for the concentrations (50, 25, 12.5 and 0 μM), the corresponding percentages and the value 50, (=TREND (C50:C0, %50:%0, 50).

A further data set deals with T1, human CXCR4 (Homo sapiens, UniProt P61073).
T1 construct: expressed in transfected cells; host or cells: mouse pre-B cell line 300-19
Put plainly: Ca2+-assay: CXCR4-antagonizing activity (SDF-1 induced calcium mobilization). Particulars: mouse pre-B cell line 300-19 stably transfected with human CXCR4, read-out: IC50% [nM] ± SD, CXCR4 receptor. The data set is classed as cell-based. The source says: 2.3. Ca^2+-Assay: CXCR4-Antagonizing Activity of the Depsipeptides
Increases in intracellular calcium were monitored using a Flexstation 384 (Molecular Devices, Sunnyvale, Calif.) to assay the depsipeptides for CXCR4 antagonism in a mouse pre-B cell line 300-19 stably transfected with human CXCR4 (E. Oberlin, A. Amara, F. Bachelerie, C. Bessia, J.-L. Virelizier, F. Arenzana-Seisdedos, O. Schwartz, J.-M. Heard, I. Clark-Lewis, D. F. Legler, M. Loetscher, M. Baggiolini, B. Moser, Nature 1996, 382, 833-835; M. Loetscher, T. Geiser, T. O'Reilly, R. Zwalen, M. Baggiolini, B. Moser, J. Biol. Chem. 1994, 269, 232-237; M. D'Apuuo, A. Rolink, M. Loetscher, J. A. Hoxie, I. Clark-Lewis, F. Melchors, M. Baggiolini, B. Moser, Eur. J. Immunol. 1997, 27, 1788-1793). The cells were batch loaded with the Calcium 4 Assay kit (Molecular Devices) in assay buffer (Hanks Balanced salt solution [HBSS], 20 mM HEPES, pH 7.4, 0.1% BSA) for 1 h at room temperature and labeled cells were dispensed into black well assays plates (Costar No. 3603). Calcium mobilization induced by stromal-derived factor-1 (SDF-1) was measured in the Flexstation 384 (excitation: 485 nm; emission: 525 nm) for 90 seconds. Antagonist activity of depsipeptides was determined by spiking the cells with compounds prior to SDF-1 addition. Dose response curves (compound concentration versus % maximum response for SDF-1) were determined for each antagonist and IC50 values were calculated by fitting the data to a four parameter logistic equation using SoftmaxPro 4.8 (Molecular Devices).
(In general: A change in cytosolic calcium serves as a functional read-out for many receptors and channels.)

The subject of data set [3] is human red blood cells (hRBC). The data set is classed as cell-based. Conditions: red cells of human, 1 h. As for the experimental part: 2.5. Hemolysis The depsipeptides were tested for their hemolytic activity against human red blood cells (hRBC). Fresh hRBC were washed three times with phosphate buffered saline (PBS) and centrifuged for 10 min at 2000×g. Compounds (100 μM) were incubated with 20% hRBC (v/v) for 1 h at 37° C. The final erythrocyte concentration was approximately 0.9×10^9 cells/mL. A value of 0% and 100% cell lyses, respectively, was determined by incubation of hRBC in the presence of PBS alone and 0.1% Triton X-100 in H2O, respectively. The samples were centrifuged, the supernatants were 20-fold diluted in PBS buffer and the optical densities (OD) were measured at 540 nm. The 100% lyses value (OD540H2O) gave an OD540 of approximately 1.3-1.8. Percent hemolysis was calculated as follows: (OD540peptide/OD540H2O)×100%.

Numbered stars: 1 amine (or outer) side, 2 acyl side, 3 side chain; on linkers, the order of the positions; unused ones are H or OH. Bridge positions count the residues as written; N and C are the ends. Square brackets hold non-standard residues; d marks the D form. Peptide text beside a SMILES is read from it. Abu(3S-NH2) = C[C@H](N)[C@H](N)C(=O)O; X1 = NCC[C@H](O[*:1])C(=O)[*:2]

For orientation: GI50 means the concentration that inhibits growth by half. For orientation: IC50 means the point on the concentration scale where inhibition reaches its midpoint.

T1 sequence (P61073 whole entry): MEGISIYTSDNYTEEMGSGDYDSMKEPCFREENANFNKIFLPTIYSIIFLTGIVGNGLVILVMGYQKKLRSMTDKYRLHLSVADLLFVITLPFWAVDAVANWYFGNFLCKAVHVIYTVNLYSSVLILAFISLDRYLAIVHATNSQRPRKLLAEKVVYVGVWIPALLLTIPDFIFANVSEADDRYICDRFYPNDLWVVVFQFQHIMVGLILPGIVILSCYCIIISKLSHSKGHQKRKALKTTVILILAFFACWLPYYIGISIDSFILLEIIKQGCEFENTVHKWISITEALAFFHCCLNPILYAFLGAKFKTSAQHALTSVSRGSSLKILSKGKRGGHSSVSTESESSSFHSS

Take `C[C@@H]1NC(=O)[C@H](Cc2c[nH]cn2)NC(=O)[C@H](Cc2ccc(O)cc2)NC(=O)[C@@H]2CCCN2C(=O)[C@H]2CCCN2C(=O)[C@H](CCCCN)NC(=O)[C@H](CCC(N)=O)NC(=O)[C@H](Cc2ccc(O)cc2)NC(=O)[C@@H]2CSSC[C@H](NC1=O)C(=O)N[C@@H](CO)C(=O)N[C@@H](C)C(=O)N1CCC[C@@H]1C(=O)O[C@@H](CCN)C(=O)N[C@@H](CCCNC(=N)N)C(=O)N[C@@H](Cc1ccc(O)cc1)C(=O)N2` [Example 2]: the Plasmastability human pl. T1/2 in data set [1] is over 240 min. Moreover, the Plasmastability mouse pl. T1/2 in data set [2] is over 240 min. The GI50 at 48 h in “in vitro” (African green monkey) and in “in vitro” (human) was over 50 µM throughout. Further, the IC50 at human CXCR4 is 0.7 ± 0.7 nM. Moreover, the “Hemolysis at 100 μM” value in data set [3] was determined as 0.7%.
For the compound `C[C@@H]1NC(=O)[C@H](Cc2c[nH]cn2)NC(=O)[C@H](Cc2ccc(O)cc2)NC(=O)[C@@H]2CCCN2C(=O)[C@H]2CCCN2C(=O)[C@H](CCN)OC(=O)[C@@H](CCC(N)=O)NC(=O)[C@H](Cc2ccc(O)cc2)NC(=O)[C@@H]2CSSC[C@H](NC1=O)C(=O)N[C@@H](CCCNC(=N)N)C(=O)N[C@@H](C)C(=O)N1CCC[C@@H]1C(=O)N[C@@H]([C@H](C)N)C(=O)N[C@@H](CCCNC(=N)N)C(=O)N[C@@H](Cc1ccc(O)cc1)C(=O)N2` [Example 10] (cyclo(YHACRA[dP][Abu(3S-NH2)]RYCY[dQ][X1][dP]P); disulfide 4-11), the half-life at 10 μM was found to be 5.1 min in data set [1] and 5.3 min in data set [2]. In addition, the GI50 at 48 h in the data set “in vitro” (African green monkey) and in the data set “in vitro” (human) was over 50 µM in each case. In addition, at human CXCR4, the concentration for half-maximal inhibition (IC50) is 16.6 ± 1.5 nM. Moreover, the “Hemolysis at 100 μM” value in data set [3] stood at 0.3%.
In the case of `C[C@@H]1NC(=O)[C@H](CCN)OC(=O)[C@H](Cc2ccc(O)cc2)NC(=O)[C@@H]2CCCN2C(=O)[C@H]2CCCN2C(=O)[C@H](CCCCN)NC(=O)[C@H](CCC(N)=O)NC(=O)[C@H](Cc2ccc(O)cc2)NC(=O)[C@@H]2CSSC[C@H](NC1=O)C(=O)N[C@@H](CO)C(=O)N[C@@H](C)C(=O)N1CCC[C@@H]1C(=O)N[C@@H]([C@H](C)N)C(=O)N[C@@H](CCCNC(=N)N)C(=O)N[C@@H](Cc1ccc(O)cc1)C(=O)N2` [Example 6] (cyclo(Y[X1]ACSA[dP][Abu(3S-NH2)]RYCYQK[dP]P); disulfide 4-11), the half-life at 10 μM in data set [1] worked out at 4.2 min; in data set [2], 4.3 min. Further, the GI50 at 48 h in the data set “in vitro” (African green monkey) and in the data set “in vitro” (human) was over 50 µM in each case. Further, the IC50 on human CXCR4 worked out at 13.5 ± 5 nM. For the same compound, the “Hemolysis at 100 μM” value in data set [3] is given as 1.0%.
